Reference: patent US20230091047A1 (priority 2019, published 2023)
Read-outs that look alike come from different tables or passages of the source.

Legend:
[1] = tested on: HBV (HepG2.117 cell line, inducibly HBV producing); assay: Anti-HBV activity: intracellular HBV DNA by real-time PCR in HepG2.117 cells after 3 days of treatment; type: cell-based, hepatitis B virus
How it was run: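 Tet-off HepG2.117; HBV replication induced (no doxycycline); serial compound dilutions, 3 d; intracellular HBV DNA by real-time PCR, HBV-specific primers/probe.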

[2] = tested on: HepG2 cells; assay: in vitro; type: cell-based; conditions: 3-days incubation (unmarked values); HepG2 or HepG2.117 cells, ATPlite; mean value; read-out: CC50 (μM, mean value)
How it was run: (§1)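 Luminescent ATP quantitation served as the viability endpoint following a 3- or 4-day incubation with test compounds.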

[3] = in vitro; type: cell-based; conditions: human, HepG2 or HepG2.117 cells, mean value
How it was run: as §1

[4] = HepG2.117 cells, 3 days of treatment, intracellular HBV DNA by real-time PCR; mean value; read-out: EC50 (μM, mean value)
[5] = Hepatitis B virus, HepG2.117, 72 h, HepG2.117 cells, intracellular HBV DNA by real-time PCR, 3 days of treatment, mean value; read-out: EC50 (μM, mean value)
[6] = ATPlite, 3-days incubation (not marked with *)
[7] = Hepatitis B virus, HepG2.117, 72 h, HepG2.117 cells, 3 days of treatment, intracellular HBV DNA by real-time PCR; mean value; read-out: EC50 (μM, mean value)
[8] = 3-days incubation (unmarked values), ATPlite viability

| Structure (SMILES) | EC50 [1, 5] | CC50 at 3 days [3, 6] | other results |
| --- | --- | --- | --- |
| CNC(=O)c1ccc(-n2c(NC(C)C)nc3c(c2=O)C[C@@H](C)N(C(=O)c2ccc(Cl)c(Cl)c2)C3)c(Cl)c1 (atropisomer, axis not shown) [Compound C293b, 3-chloro-4-[(6R)-7-(3,4-dichlorobenzoyl)-6-methyl-4-oxo-2-[(propan-2-yl)amino]-5,6,7,8-tetrahydropyrido[3,4-d]pyrimidin-3(4H)-yl]-N-methylbenzamide] |  |  | EC50 [1, 4]: 0.06 µM; CC50 [2]: 27.1 µM |
| Cc1cc(-n2cccn2)ccc1-n1c(NC(C)C)nc2c(c1=O)C[C@@H](C)N(C(=O)c1ccc(Cl)c(Cl)c1)C2 (atropisomer, axis not shown) [Compound C308a, (6R)-7-(3,4-dichlorobenzoyl)-6-methyl-3-[2-methyl-4-(1H-pyrazol-1-yl)phenyl]-2-[(propan-2-yl)amino]-5,6,7,8-tetrahydropyrido[3,4-d]pyrimidin-4(3H)-one] |  |  | EC50 [1, 4]: 0.11 µM; CC50 [2]: > 50 µM |
| COc1ccccc1-n1c(NCc2ccc3c(c2)OCO3)nc2c(c1=O)CCN(C(=O)c1ccc(Cl)c(Cl)c1)C2 (single isomer, unassigned) [Compound C26a, 2-{[(2H-1,3-benzodioxol-5-yl)methyl]amino}-7-(3,4-dichlorobenzoyl)-3-(2-methoxyphenyl)-5,6,7,8-tetrahydropyrido[3,4-d]pyrimidin-4(3H)-one] |  |  | EC50 [1, 4]: 1.42 µM; CC50 [2]: > 50 µM |
| COc1ccccc1-n1c(NCc2ccc3c(c2)OCO3)nc2c(c1=O)CCN(C(=O)c1ccc(Cl)c(Cl)c1)C2 (single isomer, unassigned) [Compound C26b, 2-{[(2H-1,3-benzodioxol-5-yl)methyl]amino}-7-(3,4-dichlorobenzoyl)-3-(2-methoxyphenyl)-5,6,7,8-tetrahydropyrido[3,4-d]pyrimidin-4(3H)-one] |  |  | EC50 [1, 4]: 1.04 µM; CC50 [2]: > 50 µM |
| COc1ccc(CNc2nc3c(c(=O)n2-c2ccccc2OC)C[C@H](C)N(C(=O)c2ccc(Cl)c(Cl)c2)C3)cc1 (single isomer, unassigned) [Compound C36Ba] |  |  | EC50 [1, 4]: 1.21 µM; CC50 [2]: > 50 µM |
| CC(C)Nc1nc2c(c(=O)n1-c1ccc(S(C)(=O)=O)cc1)C[C@H](C)N(C(=O)c1ccc(Cl)c(Cl)c1)C2 [Compound C141, (6S)-7-(3,4-dichlorobenzoyl)-3-[4-(methanesulfonyl)phenyl]-6-methyl-2-[(propan-2-yl)amino]-5,6,7,8-tetrahydropyrido[3,4-d]pyrimidin-4(3H)-one] |  |  | CC50 [2]: > 50 µM |
| CNC(=O)c1ccc(-n2c(NC(C)C)nc3c(c2=O)C[C@@H](C)N(C(=O)c2ccc(Cl)cc2C(F)(F)F)C3)cc1 [Compound C648] | 0.22 µM | > 50 µM |  |
| CNC(=O)c1ccc(-n2c(N[C@@H](C)c3ccc(F)cc3)nc3c(c2=O)C[C@@H](C)N(C(=O)c2ccc(Cl)c(C(F)(F)F)c2)C3)cc1 [Compound C651] | 0.05 µM | 8.8 µM |  |
| CNC(=O)c1cc(-n2c(O)nc3c(c2=O)C[C@@H](C)N(C(=O)c2ccc(Cl)c(C(F)(F)F)c2)C3)n(C)n1 [Compound C653] | > 2.5 µM | > 50 µM |  |
| CC(C)Nc1nc2c(c(=O)n1-c1ccc(C(=O)NC3CC3)cc1)C[C@@H](C)N(C(=O)c1ccc(Cl)c(C(F)(F)F)c1)C2 [Compound C654] | 0.03 µM | > 50 µM |  |
| CNC(=O)c1ccc(-n2c(N[C@@H](C)c3ccc(C(F)(F)F)cc3)nc3c(c2=O)C[C@@H](C)N(C(=O)c2ccc(Cl)c(Cl)c2)C3)nc1 [Compound C655] | 0.08 µM | 9.1 µM |  |
| CC(C)Nc1nc2c(c(=O)n1-c1ccnc(Cl)c1)C[C@@H](C)N(C(=O)c1ccc(Cl)c(Cl)c1)C2 [Compound C656] | 0.26 µM | > 50 µM |  |
| CNC(=O)c1cc(-n2c(N[C@@H](C)c3ccc(F)cc3)nc3c(c2=O)C[C@@H](C)N(C(=O)c2ccc(Cl)c(C(F)(F)F)c2)C3)n(C)n1 [Compound C658] | 0.07 µM | 32.2 µM |  |
| CNC(=O)c1ccc(-n2c(NC(C)C)nc3c(c2=O)C[C@@H](C)N(C(=O)c2ccc(Cl)c(C(F)(F)F)c2)C3)c(C2CC2)c1 [Compound C661] | 0.07 µM | 25 µM |  |
| CNC(=O)c1ccc(-n2c(NC3(c4ccccc4)CC3)nc3c(c2=O)C[C@@H](C)N(C(=O)c2ccc(Cl)c(Cl)c2)C3)cc1 [Compound C662] | 0.16 µM | 30.5 µM |  |
| CNC(=O)c1cc(-n2c(NC(C)C)nc3c(c2=O)C[C@@H](C)N(C(=O)c2ccc(Cl)c(C(F)(F)F)c2)C3)nn1C [Compound C668] | 0.01 µM | > 50 µM |  |
| COC(=O)c1ccc(-n2c(NC(C)CCCCO)nc3c(c2=O)C[C@@H](C)N(C(=O)c2ccc(Cl)c(Cl)c2)C3)cc1OC (stereo partly shown) [Compound C670] | 0.37 µM | > 50 µM |  |
| CNC(=O)c1ncc(-n2c(NC(C)C)nc3c(c2=O)C[C@@H](C)N(C(=O)c2ccc(Cl)c(C(F)(F)F)c2)C3)n1C [Compound C671] | 0.05 µM | > 50 µM |  |
| CNC(=O)c1cc(-n2c(NC(C)C)nc3c(c2=O)C[C@@H](C)N(C(=O)c2ccc(Cl)c(C(F)F)c2)C3)n(C)n1 [Compound C672] | 0.09 µM | > 50 µM |  |

| Structure (SMILES) | EC50 [1, 5] | CC50 at 3 days [3, 6] | other results |
| --- | --- | --- | --- |
| CNC(=O)c1ccc(-n2c(NC(C)C)nc3c(c2=O)C[C@@H](C)N(C(=O)c2cc(Cl)c(Cl)cn2)C3)cc1 [Compound C674] | 2.04 µM | > 50 µM |  |
| CNC(=O)c1ccc(-n2c(NC(C)C)nc3c(c2=O)C[C@@H](C)N(C(=O)c2cnc4ccccc4n2)C3)cc1 [Compound C675] | 1.6 µM | > 50 µM |  |
| CNC(=O)c1ccc(-n2c(NC(C)C)nc3c(c2=O)C[C@@H](C)N(C(=O)c2ccc(Cl)c(OC(F)F)c2)C3)cc1 [Compound C679] | 0.21 µM | > 50 µM |  |
| CC(C)Nc1nc2c(c(=O)n1-c1ccc(C(=O)NC3CC3)cc1)C[C@@H](C)N(C(=O)c1ccc(Cl)c(C(F)F)c1)C2 [Compound C681] | 0.04 µM | > 50 µM |  |
| CC(C)Nc1nc2c(c(=O)n1-c1ccc(C(=O)N3CCOCC3)cc1)C[C@@H](C)N(C(=O)c1ccc(Cl)c(C(F)F)c1)C2 [Compound C682] | 0.12 µM | > 50 µM |  |
| CNC(=O)c1ccc(-n2c(NC(C)C)nc3c(c2=O)C[C@@H](C)N(C(=O)c2ccc(Cl)c(C(F)(F)F)c2)C3)nn1 [Compound C684] | 0.06 µM | > 50 µM |  |
| CNC(=O)c1ccc(-n2c(NC(C)C)nc3c(c2=O)C[C@@H](C)N(C(=O)c2ccc(Cl)c(C#N)c2)C3)cc1 [Compound C686] | 0.2 µM | > 50 µM |  |
| CNC(=O)c1cc(-n2c(NC(C)C)nc3c(c2=O)C[C@@H](C)N(C(=O)c2ccc(Cl)c(C(F)(F)F)c2)C3)[nH]n1 [Compound C687] | 0.02 µM | > 50 µM |  |
| CNC(=O)c1cc(Cl)c(-n2c(NC(C)C)nc3c(c2=O)C[C@@H](C)N(C(=O)c2ccc(Cl)c(C(F)(F)F)c2)C3)c(Cl)c1 [Compound C688] | 0.04 µM | 29.3 µM |  |
| COc1ccc(CN(c2nc3c(c(=O)n2-c2ccc(Br)cc2)C[C@@H](C)N(C(=O)c2ccc(Cl)c(Cl)c2)C3)C(C)C)c(OC)c1 [Compound C691] | 2.45 µM | > 50 µM |  |
| CNC(=O)c1n[nH]c(-n2c(NC(C)C)nc3c(c2=O)C[C@@H](C)N(C(=O)c2ccc(Cl)c(Cl)c2)C3)c1Cl [Compound C692] | 0.07 µM | > 50 µM |  |
| CNC(=O)c1n[nH]c(-n2c(NC(C)C)nc3c(c2=O)C[C@@H](C)N(C(=O)c2ccc(Cl)c(Cl)c2)C3)c1C [Compound C693] | 0.11 µM | > 50 µM |  |
| CC(C)NC(=O)c1cnc(-n2c(NC(C)C)nc3c(c2=O)C[C@@H](C)N(C(=O)c2ccc(Cl)c(C(F)(F)F)c2)C3)cn1 [Compound C694] |  |  | EC50 [1, 7]: 0.05 µM; CC50 at 3 days [3, 8]: > 50 µM |
| CNC(=O)c1cnc(-n2c(NC(C)C)nc3c(c2=O)C[C@@H](C)N(C(=O)c2ccc(Cl)c(C(F)(F)F)c2)C3)cn1 [Compound C695] |  |  | EC50 [1, 7]: 0.04 µM; CC50 at 3 days [3, 8]: > 50 µM |
| CNC(=O)c1ccc(-n2c(NC(C)C)nc3c(c2=O)C[C@@H](C)N(C(=O)c2ccc(Cl)c(C(F)(F)F)c2)C3)nc1 [Compound C698] |  |  | EC50 [1, 7]: 0.02 µM; CC50 at 3 days [3, 8]: > 50 µM |
| CNC(=O)c1ccc(-n2c(N[C@@H](C)C3CC3)nc3c(c2=O)C[C@@H](C)N(C(=O)c2ccc(Cl)c(C(F)F)c2)C3)cc1 [Compound C699, 4-((R)-7-(4-chloro-3-(difluoromethyl)benzoyl)-2-(((S)-1-cyclopropylethyl)amino)-6-methyl-4-oxo-5,6,7,8-tetrahydropyrido[3,4-d]pyrimidin-3(4H)-yl)-N-methylbenzamide] |  |  | EC50 [1, 7]: 0.04 µM; CC50 at 3 days [3, 8]: > 50 µM |
| CC(C)NC(=O)c1ncc(-n2c(NC(C)C)nc3c(c2=O)C[C@@H](C)N(C(=O)c2ccc(Cl)c(C(F)(F)F)c2)C3)n1C [Compound C703] |  |  | EC50 [1, 7]: 0.09 µM; CC50 at 3 days [3, 8]: > 50 µM |
| CC(C)Nc1nc2c(c(=O)n1-c1ccc(C(=O)O)cc1)C[C@@H](C)N(C(=O)c1ccc(Cl)c(Cl)c1)C2 [Compound I70, (R)-4-(7-(3,4-dichlorobenzoyl)-2-(isopropylamino)-6-methyl-4-oxo-5,6,7,8-tetrahydropyrido[3,4-d]pyrimidin-3(4H)-yl)benzoic acid] | 3.6 µM | > 50 µM |  |
